In ChEMBL document CHEMBL6121054, “Discovery of Metabolic Reprogramming 2-Quinolones as Effective Antimicrobials for MRSA-Infected Wound Therapy” (J Med Chem, 2025):
In brackets after ≈: the same amount, converted by molar mass. Activity calls are given as the source filed them. No cut-off for these calls is given here.

Assays:
[1] = system: Staphylococcus aureus; assay: Bactericidal activity against methicillin-resistant Staphylococcus aureus MRSA 1; type: functional
[2] = system: Staphylococcus aureus; assay: Antibacterial activity against Staphylococcus aureus USA300 assessed as acceleration of TCA cycle measured by increase in mqo mRNA level upto 0.25 ug/ml incubated for 6 hrs by RT-PCR analysis; type: functional, organism-based; conditions: dose <= 0.25 µg/ml
[3] = system: Caco-2; assay: Cytotoxicity against human Caco-2 cells assessed as cell viability upto 8 ug/ml incubated for 6 hrs by LDH assay; type: toxicity, cell-based; conditions: caco-2, 6 h, dose < 8 µg/ml
[4] = system: Staphylococcus aureus; assay: Antibacterial activity against methicillin-resistant Staphylococcus aureus infected in BALB/c mouse wound model assessed as reversal of inflammation-induced IL-6 level in wound at 20 to 80 mg/kg administered topically on days 0, 3 and 6 measured after 12 days by ELISA; type: functional, organism-based; conditions: dose 20-80 mg/kg, route top, time 12.0 day

CCn1c(=O)c(C(=O)Nc2nnc(-c3ccc(C)cn3)s2)c(O)c2ccccc21
MBC [1]: 0.05 µg/mL (≈ 0.123 µM) | Activity [2]: Active | Activity [3]: Non-toxic | Activity [4]: Active
